Laboratory results taken from paper PMC2363616, “Mapping the HLA-A24-restricted T-cell epitope peptide from a tumour-associated antigen HER2 / neu: possible immunotherapy for colorectal carcinomas” (British Journal of Cancer, 2001).

Tested on: CD8+ T cells of HLA-A24 healthy donors
Assay: Primary CTL induction with peptide-pulsed autologous DCs, cytotoxicity tested on peptide-pulsed TISI
Format: cell-based, human
Settings: data not shown

## CC(C)C[C@H](NC(=O)[C@H](CC(C)C)NC(=O)[C@H](C)NC(=O)[C@H](CC(C)C)NC(=O)[C@H](CC(C)C)NC(=O)[C@H](CC(C)C)NC(=O)CNC(=O)[C@H](Cc1c[nH]c2ccccc12)NC(=O)[C@@H](N)CCCNC(=N)N)C(=O)O [HE1]
  CTL induction activity (cytotoxicity of peptide-stimulated CTLs against the peptide-pulsed TISI): showed the cytotoxicity against the peptide- pulsed TISI
